Tests used:
[1] = test system: insulin secretion; conditions: Buchanan et al. (2001) Biochem. J. 360: 431-439; cited from earlier work
[2] = test system: NIH-3T3 fibroblast cells; experiment: Stimulation of proliferation of NIH-3T3 cells (3H-thymidine uptake); assay type: cell-based; conditions: 10, 50, 100 and 500 nM preptin; FIG. 1
Protocol: NIH-3T3 cells may be used for various purposes including research regarding mitogenicity investigations. See, e.g., Buergisser et al. (1990). BiochemBiophys Res Comm 169(3): 832-839; Burgisser et al. (1991). J Biol. Chem 266(2): 1029-33; Yang et al. (1996). Endocrinol 137(7): 2766-2773; Geddes et al. (2001). Prot Engin 14(1): 61-65. NIH-3T3 cells were seeded in 24 well plates at a density of 3×10^4 cells/well. Cells were grown at 37° C. for 24 hours in high glucose DMEM (supplemented with 30 mM sodium hydrogen carbonate, 2 mM L-glutamine, 10^5 IU/l penicillin, 0.01% streptomycin sulphate) and 10% fetal calf serum, after which time they were serum starved for 24 hours in high DMEM and 0.2% BSA. […] This alkaline cell lysate was then neutralized with 200 μl of 0.2M HCl before 300 μl aliquots were mixed with 2 ml of Starscint scintillation fluid, and counted on a scintillation counter.
One method of measuring cell proliferation is via the incorporation of labeled nucleotides (e.g., [3H]-thymidine) into- newly synthesized DNA during cell division. For example, one of the most familiar and widely used methods for quantifying cell proliferation is the measurement of tritiated thymidine ([3H]-thymidine) incorporation. […]

[3] = test system: INS-1E β-cells; experiment: Stimulation of proliferation of INS-1E β-cells (3H-thymidine uptake); assay type: cell-based; conditions: general statement; test with 10 nM rat preptin in INS-1E cells, FIG. 2
Protocol: INS-1E cells were seeded in 24 well plates at a density of 2×10^5 cells/well. Cells were grown at 37° C. for 24 hours in modified RPMI-1640 (GIBCO R-1383 Lot108H83032; supplemented with 23.8 mM sodium hydrogen carbonate, 2 mM L-glutamine, 10 mM HEPES, 50 μM β-Mercaptoethanol, 1 mM Sodium Pyruvate, 10^5 IU/l penicillin, 0.01% streptomycin sulphate) and 10% fetal calf serum, after which time they were serum starved for 24 hours in modified RPMI-1640. The serum free medium was then replaced with 500 μl of RPMI-1640 containing the following:
0% fetal calf serum (negative control), 10% fetal calf serum (positive control), 10 nM of rat preptin (rPreptin 10 nM), 10 nM of human GLP-1 (hGLP-1 10 nM), 10 nM of human IGF-II (hIGF-II 10 nM), and cells were incubated for a further 18 hours before the addition of 5 μCi of ^3H-thymidine to each well. After a further 6 hours incubation, medium was aspirated and cells were washed twice with cold PBS, once with cold 5% TCA, and twice with cold 100% ethanol. Plates were then air-dried for 30 minutes before cells were solubilized with 400 μl of 0.5M NaOH. This alkaline c ell lysate was then neutralized with 400 μl of 0.5M HCl before 500 μl aliquots were mixed with 2 ml of Starscint scintillation fluid, and counted on a scintillation counter. […]

## preptin: peptide of 34 amino acids, Formula (I); corresponds to Asp69-Leu102 of proinsulin-like growth factor II (DVSTPPTVLPDNFPRYPVGKFFQYDTWKQSTQRL; Preptin; UniProt P01344 93-126, looked up)
[1]
  effect on insulin secretion: enhance, but not initiate, insulin secretion
[2]
  effect on the proliferation of NIH-3T3 fibroblast cells (tritiated thymidine uptake): dose dependent effect
[3]
  proliferation of pancreatic islet β-cells: stimulate proliferation
